# Data taken from US3965139A, “2-Chloro-N-(cyanomethyl)acetanilides” (Diamond Shamrock Corporation, priority 1974, dated 1976).
# Tests used:
# grass species [1] = assay: Greenhouse Preemergence Herbicide Test, grass species; format: in vivo; settings: two weeks after treatment
# Description: To illustrate the preemergence herbicidal efficiency of the N-(cyanomethyl)acetanilides of this invention, test formulations are prepared of representative compounds by mixing 20 ml of an acetone solution containing 0.125 g of the test compound with 20 ml of water containing 0.01 g of Triton X-155 surfactant. The resultant formulations contain 3125 ppm of test compound, 50% by volume of acetone and 0.025% by weight of surfactant. Appropriate lower concentrations are obtained by diluting this formulation with surfactant-acetone solution so that the concentration of adjuvants is maintained at the original levels.
# Seeds of three broadleaf and three grass species are planted in soil contained in 10 × 8 × 3 inch aluminum pans filled with 1.5 inches of composted soil. The broadleaf species are pigweed (Amaranthus retroflexus), a velvetleaf (Abutilon theophrasti), and morningglory (Ipomea coccinea); the grasses are red millet (Panicum milliacem), greenfoxtail (Setaria viridis) and Japanese millet (Echinochloa frumentacea).
# The pans are then sprayed so that the soil surface is uniformly covered with dilutions of the stock formulation providing dosage rates of the test compounds corresponding to 8, 4, 2, 1, 0.5, and 0.25 lb/A. Two weeks after treatment, percent control (plant kill) at each dosage rate is estimated. The lowest concentration of each compound (lb/A) found to provide 50% or greater control of the grass weeds is as follows: […]
# Giant Foxtail = assay: Field Preemergence Test, light sandy soil; format: in vivo; settings: 3-4 weeks after planting
# Source text: (§1) Test plots of fertilized, light sandy soil containing 0.7% organic matter are sprayed uniformly with aqueous suspensions prepared from an emulsifiable concentrate containing 12%, by weight, of 2-chloro-N-cyanomethyl-2',6'-diethylacetanilide (the product of Example 1) diluted to provide dosage rates of the test compound corresponding to 2, 1, 0.5, and 0.25 pound per acre (lb/A). The plots are then sown with seeds of the following crop plants: sweet corn, cotton (Coker 413), and soybeans, var. Davis. Seeds of the following weed plants are planted: redroot pigweed, prickly sida, and common lambsquarter (broadleaf species); goosegrass and giant foxtail (grass species).
# (§2) Three to four weeks after planting, percent control (plant kill) of the test plants is estimated, from a rating of 0 which denotes no injury to the plant up to 100 which denotes complete destruction. The % weed control exerted by 2-chloro-N-cyanomethyl-2',6'-diethylacetanilide is as follows: […]
# Goosegrass = assay: Field Preemergence Test, light sandy soil; format: in vivo; settings: 3-4 weeks after planting
# Source text: as §1, §2
# Prickly Sida = assay: Field Preemergence Test, light sandy soil; format: in vivo; settings: 3-4 weeks after planting
# Source text: as §1, §2
# Redroot Pigweed = assay: Field Preemergence Test, light sandy soil; format: in vivo; settings: 3-4 weeks after planting
# Source text: as §1, §2
# Lambsquarter = assay: Field Preemergence Test, light sandy soil; format: in vivo, common lambsquarter; settings: 3-4 weeks after planting
# Source text: as §1, §2
# Corn [2] = assay: Field Preemergence Test, phytotoxic effects on crop; format: in vivo, sweet corn; settings: light sandy soil; for % Crop Kill, Corn: 3-4 weeks after planting
# Source text: as §1
# (§3) Three to four weeks after planting, percent control (plant kill) of the test plants is estimated, from a rating of 0 which denotes no injury to the plant up to 100 which denotes complete destruction. The % weed control exerted by 2-chloro-N-cyanomethyl-2',6'-diethylacetanilide is as follows:
# (§4) Phytotoxic effects observed on the crop species is estimated with results as follows: […]
# Cotton = assay: as above; format: in vivo, cotton (Coker 413); settings: light sandy soil; for % Crop Kill, Cotton: 3-4 weeks after planting
# Source text: as §1, §3, §4
# Soybeans [3] = assay: as above; format: in vivo, var. Davis; settings: light sandy soil; for % Crop Kill, Soybeans: 3-4 weeks after planting
# Source text: as §1, §3, §4
# Corn [4] = assay: Preemergence test in loam-type heavier soil, crop; format: in vivo; settings: for % Control of Plant Growth, Corn: about three weeks after planting, loam-type heavier soil
# Soybeans [5] = assay: Preemergence test in loam-type heavier soil, crop; format: in vivo; settings: for % Control of Plant Growth, Soybeans: about three weeks after planting, loam-type heavier soil
# Source text: (§5) This example illustrates the performance of 2-chloro-N-cyanomethyl-2',6'-diethylacetanilide in a different type soil than employed in the previous example. For this test, test plots of a loam-type, heavier soil containing 5.5% organic matter are sprayed uniformly with formulations of the test compound providing dosage rates of 4, 2, and 1 pound per acre (lb/A). The plots are then sown to cotton and soybeans and with seeds of the broadleaf, redroot pigweed, and the grasses, Johnson grass and yellow foxtail, as indicator weed plants.
# (§6) Approximately three weeks after planting, the test plots are examined and percent control of plant growth is rated from 0% to 100% as previously described.
# Pigweed = assay: Preemergence test in loam-type heavier soil, weed; format: in vivo, redroot pigweed; settings: about three weeks after planting
# Source text: as §5, §6
# Johnsongrass = assay: Preemergence test in loam-type heavier soil, weed; format: in vivo, Johnson grass; settings: about three weeks after planting
# Source text: as §5, §6
# Yellow Foxtail = assay: Preemergence test in loam-type heavier soil, weed; format: in vivo; settings: about three weeks after planting
# Source text: as §5, §6
# grassy-type weeds = assay: Field Preemergence Test, light sandy soil, grasses overall; format: in vivo, goosegrass and giant foxtail
# Source text: as §1, §2
# broadleaf species [6] = assay: Field Preemergence Test, light sandy soil, broadleaf species overall; format: in vivo, redroot pigweed, prickly sida, common lambsquarter
# Source text: as §1, §2
# grass species [7] = assay: Preemergence test in loam-type heavier soil, grasses overall; format: in vivo, Johnson grass and yellow foxtail; settings: 1-2 lb/A; heavy soil
# Source text: as §5, §6
# broadleaf species [8] = assay: Preemergence test in loam-type heavier soil, broadleaf species; format: in vivo, redroot pigweed; settings: 1-2 lb/A; heavy soil
# Source text: as §5, §6
structure (smiles),measurement,setting,value
"CCc1cccc(CC)c1N(CC#N)C(=O)CCl [Example 1, 2-chloro-N-cyanomethyl-2',6'-diethylacetanilide]",Minimum Dosage Providing at Least 50% Preemergence Control of Grass Species,grass species [1],0.50 lb/A
same,"% Weed Control, Giant Foxtail",Giant Foxtail; 0.25 lb/A,0%
same,"% Weed Control, Giant Foxtail",Giant Foxtail; 0.5 lb/A,27%
same,"% Weed Control, Giant Foxtail",Giant Foxtail; 1 lb/A,65%
same,"% Weed Control, Giant Foxtail",Giant Foxtail; 2 lb/A,82%
same,"% Weed Control, Goosegrass",Goosegrass; 0.25 lb/A,63%
same,"% Weed Control, Goosegrass",Goosegrass; 0.5 lb/A,88%
same,"% Weed Control, Goosegrass",Goosegrass; 1 lb/A,95%
same,"% Weed Control, Goosegrass",Goosegrass; 2 lb/A,99%
same,"% Weed Control, Prickly Sida",Prickly Sida; 0.25 lb/A,0%
same,"% Weed Control, Prickly Sida",Prickly Sida; 0.5 lb/A,0%
same,"% Weed Control, Prickly Sida",Prickly Sida; 1 lb/A,12%
same,"% Weed Control, Prickly Sida",Prickly Sida; 2 lb/A,40%
same,"% Weed Control, Redroot Pigweed",Redroot Pigweed; 0.25 lb/A,0%
same,"% Weed Control, Redroot Pigweed",Redroot Pigweed; 0.5 lb/A,33%
same,"% Weed Control, Redroot Pigweed",Redroot Pigweed; 1 lb/A,55%
same,"% Weed Control, Redroot Pigweed",Redroot Pigweed; 2 lb/A,90%
same,"% Weed Control, Lambsquarter",Lambsquarter; 0.25 lb/A,0%
same,"% Weed Control, Lambsquarter",Lambsquarter; 0.5 lb/A,20%
same,"% Weed Control, Lambsquarter",Lambsquarter; 1 lb/A,60%
same,"% Weed Control, Lambsquarter",Lambsquarter; 2 lb/A,88%
same,"% Crop Kill, Corn",Corn [2]; 1 lb/A,0%
same,"% Crop Kill, Corn",Corn [2]; 2 lb/A,0%
same,tolerance of corn,Corn [2]; 2 lb/A,tolerant
same,"% Crop Kill, Cotton",Cotton; 1 lb/A,0%
same,"% Crop Kill, Cotton",Cotton; 2 lb/A,3%
same,phytotoxicity effects on cotton,Cotton; 2 lb/A,minimal phytotoxicity effects
same,"% Crop Kill, Soybeans",Soybeans [3]; 1 lb/A,0%
same,"% Crop Kill, Soybeans",Soybeans [3]; 2 lb/A,0%
same,tolerance of soybeans,Soybeans [3]; 2 lb/A,tolerant
same,injury to corn stand,"Corn [4]; 1-2 lb/A, heavy soil",noninjurious
same,"% Control of Plant Growth, Corn",Corn [4]; 1 lb/A,0%
same,"% Control of Plant Growth, Corn",Corn [4]; 2 lb/A,0%
same,"% Control of Plant Growth, Corn",Corn [4]; 4 lb/A,10%
same,injury to soybean stand,"Soybeans [5]; 1-2 lb/A, heavy soil",noninjurious
same,"% Control of Plant Growth, Soybeans",Soybeans [5]; 1 lb/A,0%
same,"% Control of Plant Growth, Soybeans",Soybeans [5]; 2 lb/A,0%
same,"% Control of Plant Growth, Soybeans",Soybeans [5]; 4 lb/A,5%
same,"% Control of Plant Growth, Pigweed",Pigweed; 1 lb/A,0%
same,"% Control of Plant Growth, Pigweed",Pigweed; 2 lb/A,0%
same,"% Control of Plant Growth, Pigweed",Pigweed; 4 lb/A,40%
same,"% Control of Plant Growth, Johnsongrass",Johnsongrass; 1 lb/A,60%
same,"% Control of Plant Growth, Johnsongrass",Johnsongrass; 2 lb/A,80%
same,"% Control of Plant Growth, Johnsongrass",Johnsongrass; 4 lb/A,80%
same,"% Control of Plant Growth, Yellow Foxtail",Yellow Foxtail; 1 lb/A,90%
same,"% Control of Plant Growth, Yellow Foxtail",Yellow Foxtail; 2 lb/A,95%
same,"% Control of Plant Growth, Yellow Foxtail",Yellow Foxtail; 4 lb/A,95%
same,control of grassy-type weeds,grassy-type weeds,good control
same,"broadleaf weed control in a light, sandy soil",broadleaf species [6]; 1-2 lb/A,good broadleaf weed control
same,herbicidal activity against two of the broadleaf species,broadleaf species [6]; 2 lb/A,significant herbicidal activity
same,selectivity for controlling the grass species,grass species [7],selective for controlling the grass species
same,activity for controlling the broadleaf species,broadleaf species [8],no activity
"Cc1cccc(N(CC#N)C(=O)CCl)c1 [Example 8, 2-chloro-N-cyanomethyl-3'-methylacetanilide]",Minimum Dosage Providing at Least 50% Preemergence Control of Grass Species,grass species [1],0.50 lb/A
"N#CCN(C(=O)CCl)c1ccccc1Cl [Example 9, 2,2'-dichloro-N-(cyanomethyl)acetanilide]",Minimum Dosage Providing at Least 50% Preemergence Control of Grass Species,grass species [1],0.50 lb/A
"Cc1cccc(C)c1N(CC#N)C(=O)CCl [Example 10, 2-chloro-N-cyanomethyl-2',6'-dimethylacetanilide]",Minimum Dosage Providing at Least 50% Preemergence Control of Grass Species,grass species [1],0.25 lb/A
"CC(C)c1ccccc1N(CC#N)C(=O)CCl [Example 11, 2-chloro-N-cyanomethyl-2'-isopropylacetanilide]",Minimum Dosage Providing at Least 50% Preemergence Control of Grass Species,grass species [1],1.00 lb/A
"CC(C)c1cccc(C(C)C)c1N(CC#N)C(=O)CCl [Example 12, 2-chloro-N-cyanomethyl-2',6'-diisopropylacetanilide]",Minimum Dosage Providing at Least 50% Preemergence Control of Grass Species,grass species [1],0.50 lb/A
"COc1ccccc1N(CC#N)C(=O)CCl [Example 13, 2-chloro-N-cyanomethyl-2'-methoxyacetanilide]",Minimum Dosage Providing at Least 50% Preemergence Control of Grass Species,grass species [1],0.50 lb/A
"CCc1ccccc1N(CC#N)C(=O)CCl [Example 14, 2-chloro-N-cyanomethyl-2'-ethylacetanilide]",Minimum Dosage Providing at Least 50% Preemergence Control of Grass Species,grass species [1],0.50 lb/A
"N#CCN(C(=O)CCl)c1ccccc1Br [Example 15, 2'-bromo-2-chloro-N-(cyanomethyl)acetanilide]",Minimum Dosage Providing at Least 50% Preemergence Control of Grass Species,grass species [1],1.00 lb/A
